Test results reported in patent US20160243168A1, “ADOPTIVE CELL TRANSFER METHODS” (Cantex Pharmaceuticals, Inc., priority 2015, published 2016).
Where two headings read alike, the source gives them in different places.

Legend:
[1] = target: T1, binding of CXCL12 (SDF-1) to CXCR4 (Homo sapiens, UniProt P48061); experiment: in vitro inhibition assay of CXCL12 binding to CXCR4 (plate ELISA); conditions: recombinant human CXCL12 coated plate, recombinant CXCR4, absorbance 450 nm
T1 construct: purchased R&D Systems (CXCL12); Abnova (CXCR4)
T1 sequence (P48061 22-89 limits assumed): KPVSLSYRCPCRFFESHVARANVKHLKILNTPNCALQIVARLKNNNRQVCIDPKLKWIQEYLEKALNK
Protocol: Polyvinyl 96-well high bind microplates (Corning Life Sciences, Corning, N.Y.) were coated with 0.5 μg/well of recombinant human CXCL12 (R&D Systems, Minneapolis, Minn.). Plates were incubated overnight at 4° C. and washed three times with PBS-0.05% Tween-20 (PBST). Separately, a constant amount of recombinant CXCR4 (Abnova, Taipei, Taiwan, 100 μL containing 0.8 μg/mL in PBST-0.1% BSA) was incubated with an equal volume of serially diluted ODSH (0.001-1,000 μg/mL in PBST-BSA) overnight at 4° C. The following day, 50 μL of CXCR4-ODSH mix was transferred to each respective CXCL12-coated well and incubated at 37° C. for 2 h. Wells were then washed four times with PBST. To detect bound CXCR4, 50 μL of a mouse anti-human CXCR4 antibody (R&D Systems, Minneapolis, Minn.) (1 μg/mL, in PBST) was added to each well, the mixture was incubated for 1 h at room temperature, and the wells were washed again four times with PBST. Horse-radish peroxidase-conjugated secondary antibody (R&D Systems, Minneapolis, Minn.) (50 μL per well) was added, wells were incubated for 1 h at room temperature, and then washed once with PBST. […] Absorbance at 450 nm was read using an automated microplate reader. IC50 values were determined from the plot of absorbance values vs. concentrations of ODSH.

anticoagulant activity = experiment: USP anticoagulant assay; type: biochemical; conditions: seven serial 1.2 kg batches
Xa [2] = experiment: anti-Xa activity assay (plasma treated with Russell viper venom); type: biochemical; conditions: seven serial 1.2 kg batches
Excerpt: Another measure of ODSH's anticoagulant activity is its anti-Xa activity which can be determined in an assay carried out using plasma treated with Russell viper venom.

IIa = IIa (Homo sapiens, UniProt P00734+P01008); experiment: anti-IIa activity assay; type: biochemical; conditions: seven serial 1.2 kg batches
[3] = system: patients with newly diagnosed acute myeloid leukemia (AML); experiment: single arm open-label clinical study, induction chemotherapy plus ODSH; type: in vivo, human
Protocol: A single arm open-label clinical study was conducted at multiple trial sites (University of Utah, Georgia Regents University, and Medical University of South Carolina) in patients with newly diagnosed acute myeloid leukemia (AML), seeking to confirm that ODSH could accelerate platelet and white blood cell (WBC) recovery in patients receiving induction chemotherapy with a regimen known to have myelosuppressive side effects.
All patients received the following standard (“7+3”) induction regimen, • Idarubicin (12 mg/m^2/day) by short intravenous infusion on Days 1, 2, and 3; and • Cytarabine (100 mg/m^2) as a continuous intravenous infusion over 24 hours (Days 1 through 7).
All patients also received ODSH as an intravenous bolus immediately after the idarubicin dose on Day 1, at a dose of 4 mg/kg, followed by a continuous intravenous infusion at a dose of 0.25 mg/kg/hr for a total of 7 days (Days 1 through 7).
Twelve patients were enrolled. The median age was 56 (range 22-74). Based on cytogenetic, molecular, or antecedent hematologic disorder, 9 of 12 patients fell into the intermediate or poor risk categories. […] Complete remission at the end of the induction cycle was assessed using International Working Group (IWG) criteria (see, e.g., Cheson et al., J. Clin. Oncol. 21:4642 (2003)). […]

bone marrow cells = experiment: serial bone marrow biopsies in the AML trial; type: in vivo, human
Excerpt: Bone marrow biopsies were obtained in the AML trial described in Example 1.
FIGS. 2A-2C are photomicrographs of biopsies from one of the patients.

Xa [4] = conditions: Rao et al. 2010; cited from earlier work

Substance | IC50 for inhibition of binding of CXCL12 (SDF-1) to CXCR4 [1] | USP anticoagulant activity (anticoagulant activity) | anti-Xa activity (Xa [2]) | anti-IIa activity (IIa) | myelosuppressive side effects of the idarubicin+cytarabine regimen ([3]; AML patients) | Complete response with first induction cycle ([3]; current study, n = 12, morphologic complete remission by IWG criteria) | bone marrow biopsy appearance (bone marrow cells; Day 14 of the induction cycle, one patient) | bone marrow biopsy appearance (bone marrow cells; Day 28, one patient) | anti-Xa activity (Xa [4])
2-O, 3-O desulfated heparin [ODSH] | 0.010 µg/mL | 7±0.3 U/mg | 1.9±0.1 U/mg | 1.2±0.1 U/mg | significantly attenuated | 92% | unexpected and significant depletion of normal bone marrow cells | no evidence of leukemia and restoration of normal bone marrow appearance and function | –
unfractionated heparin [reference compound] | – | 165-190 U/mg | 165-190 U/mg | 165-190 U/mg | – | – | – | – | 165-190 U/mg
